Results as given in PMC3901665, “Characterization of Glycolytic Enzymes - rAldolase and rEnolase of Leishmania donovani, Identified as Th1 Stimulatory Proteins, for Their Immunogenicity and Immunoprophylactic Efficacies against Experimental Visceral Leishmaniasis” (PLoS ONE, 2014).

Legend:
Format in all cases: biochemical, Leishmania donovani
[1] = tested on: T1, rLdEno (L. donovani enolase); test: spectrophotometric PEP formation at […] nm, Michaelis-Menten; settings: 20 mM Tris-HCl pH 7.5, 2 mM MgSO4, 75 mM KCl, 25°C; 0-10 mM 2PGA
T1 construct: gene ENO; full-length ORF (PCR product 1290 bp), N-terminal 6xHis, pET-28a, E. coli C41(DE3), Ni-NTA

[2] = tested on: T2, rLdAld (L. donovani aldolase); test: hydrazine assay at […] nm, Michaelis-Menten; settings: hydrazine sulfate as detection reagent; 0.1-7 mM substrate; pH and temperature not given
T2 construct: gene ALD; full-length ORF (PCR product 1125 bp), 6xHis tag, pET-28a, E. coli, purified on Ni-NTA

[3] = tested on: T1, rLdEno (L. donovani enolase); test: spectrophotometric at […] nm, Michaelis-Menten; settings: 20 mM Tris-HCl pH 7.5, 2 mM MgSO4, 75 mM KCl, 25°C; 0-7.5 mM PEP; reverse reaction

O=C(O)[C@@H](CO)OP(=O)(O)O [2-phosphoglycerate]
Km [1]: 1540 µM

O=P(O)(O)OC[C@H]1OC(O)(COP(=O)(O)O)[C@@H](O)[C@@H]1O (stereo partly drawn) [D-Fru-1,6-P2]
Km [2]: 2060 µM

C=C(OP(=O)(O)O)C(=O)O [Phosphoenol pyruvate]
Km [3]: 3370 µM
